The results in this text go back to ChEMBL document CHEMBL1139805, “Marine natural products from the Turkish sponge Agelas oroides that inhibit the enoyl reductases from Plasmodium falciparum, Mycobacterium tuberculosis and Escherichia coli” (Bioorg Med Chem, 2007).

Molecules are shown by their SMILES. Values after ≈ are worked out from the molar mass of the structure shown.

The subject of assay [1] is Leishmania donovani. Briefly: Antileishmanial activity against Leishmania donovani after 72 hrs by Alamar blue assay. The assay is classed as functional, organism-based. (Alamar Blue is a resazurin reagent that responds to reducing activity.)
The subject of assay [2] is Trypanosoma brucei rhodesiense. The assay can be described thus: Antitrypanosomal activity against Trypanosoma brucei rhodesiense after 72 hrs by Alamar blue assay. The assay is classed as functional, organism-based.
Assay [3] deals with Plasmodium falciparum. The assay can be described thus: Antimalarial activity against chloroquine-resistant, pyrimethamine-resistant Plasmodium falciparum K1 after 48 hrs. The assay is classed as functional, organism-based. The note with it: K1, 48 h.
Assay [4] deals with L6. The assay can be described thus: Cytotoxicity against rat L6 cells after 72 hrs. Type of assay: cell-based. Particulars: L6, 72 h.
Assay [5] concerns Trypanosoma cruzi. Briefly: Antitrypanosomal activity against Trypanosoma cruzi after 72 hrs. Type of assay: functional, organism-based.
Assay [6] concerns the target T1, Enoyl-acyl-carrier protein reductase (Plasmodium falciparum, UniProt Q965D5).
T1 sequence (Q965D5 whole entry): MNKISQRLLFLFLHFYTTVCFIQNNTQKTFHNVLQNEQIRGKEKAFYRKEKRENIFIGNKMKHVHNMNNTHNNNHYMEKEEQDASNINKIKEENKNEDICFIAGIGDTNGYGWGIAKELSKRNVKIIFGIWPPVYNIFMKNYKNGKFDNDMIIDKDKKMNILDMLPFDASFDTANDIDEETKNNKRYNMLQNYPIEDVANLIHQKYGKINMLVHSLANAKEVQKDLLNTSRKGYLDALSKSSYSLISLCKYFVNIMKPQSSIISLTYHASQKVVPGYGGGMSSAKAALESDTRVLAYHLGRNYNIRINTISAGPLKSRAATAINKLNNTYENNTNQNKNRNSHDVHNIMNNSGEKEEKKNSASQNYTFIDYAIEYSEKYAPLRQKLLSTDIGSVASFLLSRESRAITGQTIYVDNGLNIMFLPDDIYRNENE
The assay can be described thus: Inhibition of Plasmodium falciparum FabI.

Assay [7] has as its target T1, Enoyl-acyl-carrier protein reductase. Briefly: Inhibition of Plasmodium falciparum FabI in presence of variable crotonyl-coA level.
The target is the same in assay [8]. The assay can be described thus: Inhibition of Plasmodium falciparum FabI in presence of variable NADH levels.

As usually defined, the IC50 is the concentration at which inhibition is half-maximal. A high value points to lower potency. Turning to `O=C(O)c1cc(Br)c(Br)[nH]1`, the IC50 in assay [1] was 7.9 µg/mL (≈ 29.4 µM); in assay [2] it was 20.9 µg/mL (≈ 77.7 µM); in assay [3] it was > 50 µg/mL; in assay [4], > 90 µg/mL; in assay [5], > 30 µg/mL; in assay [6], > 372 µM.

For the molecule `CC[C@@H](CC[C@@H](C)[C@H]1CC[C@H]2C3=CC[C@H]4C[C@@H](O)CC[C@]4(C)[C@H]3CC[C@]12C)C(C)C`, the IC50 in assay [1] is 29.5 µg/mL (≈ 71.1 µM); in assay [2] it was 14.2 µg/mL (≈ 34.2 µM); in assay [3], 16.1 µg/mL (≈ 38.8 µM); in assay [4], > 90 µg/mL; in assay [5], > 30 µg/mL; in assay [6] it was 43.4 µM.

Take `Nc1ncc(/C=C/CNC(=O)c2cc(Br)c(Br)[nH]2)[nH]1.O=C(O)C(F)(F)F` [OROIDIN TFA SALT]: the IC50 was 15.4 µg/mL in assay [1]; 12.2 µg/mL in assay [2]; 7.9 µg/mL in assay [3]; 76.4 µg/mL in assay [4]; > 30 µg/mL in assay [5]; 9.94 µM in assay [6].

A word on the Ki: it is the dissociation constant of the complex between target and ligand, obtained from inhibition or displacement. Regarding `Nc1ncc(/C=C/CNC(=O)c2cc(Br)c(Br)[nH]2)[nH]1` [OROIDIN], the IC50 in assay [1] was > 30 µg/mL; in assay [2] it was 17.3 µg/mL (≈ 44.5 µM); in assay [3] it was 3.9 µg/mL (≈ 10 µM); in assay [4], 88.6 µg/mL (≈ 228 µM); in assay [5], > 30 µg/mL; in assay [6] it was 0.771 µM. The Ki is 0.4 µM in assay [7] and 0.8 µM in assay [8].

Molecule `Oc1cc(Cl)ccc1Oc1ccc(Cl)cc1Cl` [TRICLOSAN] showed an IC50 in assay [6] of 0.0484 µM.

`Nc1nc(N)nc(Nc2ccc([As]3SCC(CO)S3)cc2)n1` (centres undefined) [MELARSOPROL] came in with an IC50 in assay [2] of 0.0027 µg/mL.

`O=C(O)C(F)(F)F.O=C(O)c1cc(Br)c(Br)[nH]1`: the 50% inhibitory concentration (IC50) is 5.8 µg/mL in assay [1]; 25.2 µg/mL in assay [2]; 49.9 µg/mL in assay [3]; > 90 µg/mL in assay [4]; > 30 µg/mL in assay [5]; 104 µM in assay [6].

Turning to `NCCS(=O)(=O)O` [TAURINE], the IC50 was > 30 µg/mL in assay [1]; 83.4 µg/mL (≈ 666 µM) in assay [2]; > 50 µg/mL in assay [3]; > 90 µg/mL in assay [4]; > 30 µg/mL in assay [5]; > 799 µM in assay [6].

For the molecule `NC/C=C/c1cnc(N)[nH]1`, the IC50 is 13.1 µg/mL (≈ 94.8 µM) in assay [1]; 2.4 µg/mL (≈ 17.4 µM) in assay [2]; 7.4 µg/mL (≈ 53.6 µM) in assay [3]; 0.7 µg/mL (≈ 5.07 µM) in assay [4]; 2.5 µg/mL (≈ 18.1 µM) in assay [5]; > 724 µM in assay [6].

In assay [4], `COc1cc([C@@H]2c3cc4c(cc3[C@H](O)[C@H]3COC(=O)[C@H]23)OCO4)cc(OC)c1OC` [PODOFILOX] showed an IC50 of 0.009 µg/mL (≈ 0.0217 µM).

Consider `COC(=O)c1cc(Br)c(Br)[nH]1`, for which the IC50 in assay [1] was > 30 µg/mL; in assay [2], 13.3 µg/mL (≈ 47 µM); in assay [3] it was > 50 µg/mL; in assay [4], > 90 µg/mL; in assay [5], > 30 µg/mL; in assay [6], > 353 µM.

On to `O=C(Cn1ccnc1[N+](=O)[O-])NCc1ccccc1` [BENZNIDAZOLE], for which half-maximal inhibition in assay [5] (IC50) required 0.17 µg/mL (≈ 0.653 µM).
